# Results taken from paper PMC7471006, “A Simplified Quantitative Real-Time PCR Assay for Monitoring SARS-CoV-2 Growth in Cell Culture” (mSphere, 2020).
# Like-named read-outs stand apart in the source and are kept apart here.
# How the values were obtained:
# [1] = system: Vero E6 cells
# [2] = system: SARS-CoV-2; assay: SYBR green-based qRT-PCR of SARS-CoV-2 RNA in supernatants of infected Vero E6 cells (compound screen); format: cell-based; conditions: for Effect on SARS-CoV-2 viral RNA in supernatants / SARS-CoV-2 replication: MOI 0.01, 24 hpi, result in words; for IC50: Severe acute respiratory syndrome coronavirus 2, Vero C1008, MOI 0.01, 24 hpi, read-out: IC50 (50% inhibitory concentration), SARS-CoV-2 viral RNA in supernatants
# [3] = system: Vero E6 cells; assay: RealTime-Glo MT cell viability assay (compound cytotoxicity); conditions: parallel plates, result in words
compound,measurement,setting,value
Cc1nc2ccc(Br)cc2c(-c2ccc(Cl)cc2)c1C(OC(C)(C)C)C(=O)O (stereo not shown) [ALLINI-2],Compound cytotoxicity,[1],without apparent cytotoxicity
same,Effect on SARS-CoV-2 viral RNA in supernatants / SARS-CoV-2 replication,[2],modestly inhibited
"CCN(c1nc(N)c(C(=O)NC(=N)N)nc1Cl)C(C)C [EIPA, ethylisopropylamiloride]",Effect on SARS-CoV-2 viral RNA in supernatants / SARS-CoV-2 replication,[2],substantially decreased viral RNA in supernatants at subcytotoxic levels
CC(C)CN(C[C@@H](O)[C@H](Cc1ccccc1)NC(=O)O[C@H]1CCOC1)S(=O)(=O)c1ccc(N)cc1 [amprenavir],Effect on SARS-CoV-2 viral RNA in supernatants / SARS-CoV-2 replication,[2],modestly inhibited
same,Compound cytotoxicity,[3],without apparent cytotoxicity
Cc1cccc(/C=N/Nc2cc(N3CCOCC3)nc(OCCc3ccccn3)n2)c1 [apilimod],Compound cytotoxicity,[1],minimal cytotoxicity
same,Potency on SARS-CoV-2 viral RNA in supernatants compared with 24 hpi,"[2]; 48 hpi, data not shown",less potent
same,Effect on SARS-CoV-2 viral RNA in supernatants / SARS-CoV-2 replication,[2],substantially decreased
same,IC50,[2],12 nM
Cc1ccnc2c1NC(=O)c1cccnc1N2C1CC1 [nevirapine],Effect on SARS-CoV-2 viral RNA in supernatants / SARS-CoV-2 replication,[2],modestly inhibited
same,Compound cytotoxicity,[3],without apparent cytotoxicity
CCC(CC)COC(=O)[C@H](C)N[P@](=O)(OC[C@H]1O[C@@](C#N)(c2ccc3c(N)ncnn23)[C@H](O)[C@@H]1O)Oc1ccccc1 [remdesivir],Effect on SARS-CoV-2 viral RNA in supernatants / SARS-CoV-2 replication,[2],substantially decreased
same,IC50,[2],2.8 µg/mL
